# Article PMC10237672, “Design and synthesis of novel anti-urease imidazothiazole derivatives with promising antibacterial activity against Helicobacter pylori” (PLOS ONE, 2023)
# Entries after “also recorded” stand apart in the source; their conditions may differ.
# Tests used:
# H. pylori [1] = assay: IC50 against H. pylori, micro broth dilution test; assay type: cell-based, Helicobacter pylori; settings: Helicobacter pylori, ATCC43504; H. pylori ATCC 43504, micro broth dilution, 72 h, OD 600 nm; read-out: IC50 value against H. pylori ± SEM
# Jack bean urease = biological target: T1, Jack bean urease (Canavalia ensiformis, UniProt P07374); assay: biochemical; assay type: biochemical
# T1 construct: purchased Sigma Aldrich
# Experimental: Reaction mixture comprising 40 μL of buffer (K2HPO4: 10 mmol/L, urea: 100 mmol/L, […]: 10 mmol/L, EDTA: 1 /L mmol, pH = 8.2) and 5 U/mL enzyme (10 μL) were pre-incubated with 10 μL of synthesized compounds (1 mM) and substrate urea (1 mM) were incubated at room temperature in 96 well plate for half an hour. After the incubation at room temperature, absorbance was taken at specific wavelength (630 nm) employing a microplate reader (Bio-Tek, USA) with R1 and R2 reagents in each well. The reactions were measured in triplicate fashion. To calculate the inhibition percentage following equation was used.
# Percentage inhibition = 100 –[tested compound/control compound] × 100.
# H. pylori [2] = assay: MIC against H. pylori, agar dilution method; assay type: cell-based, Helicobacter pylori; settings: Helicobacter pylori, ATCC43504; H. pylori ATCC 43504, agar dilution; read-out: MIC value against H. pylori ± SEM
# urease = biological target: T2, urease (Canavalia ensiformis, UniProt P07374); assay: Enzyme kinetics study (Michaelis-Menten, Lineweaver-Burk) of urease inhibition; assay type: biochemical, Jack bean; settings: urea substrate 0.5-2.0 mM, inhibitor 0, 1.5, 3.0, 4.5 μM, Lineweaver-Burk plot
# T2 construct: purchased Sigma Aldrich
# Experimental: The type of enzyme inhibition was determined by Michaelis-Menten kinetics experiments. In order to investigate the potential mechanism of action of the potent compound 2c, detailed kinetics studies were conducted. The initial inhibitory efficacy rates of enzyme activity were measured at four different concentrations of substrate (0.5, 1.0, 1.5 and 2.0 mM) in the presence or absence of compound 2c (0, 1.5, 3.0, 4.5 μM) against urease.
# Kinetics studies were performed to determine the mode of action of compound 2c. The mechanism of inhibition of urease was determined by enzyme kinetics using urea as a substrate. To determine the type of inhibition, analyze the effect of inhibitor on Vmax and Km, a Lineweaver-Burk plot (reciprocal of reaction rates […] and reciprocal of substrate concentrations […]) was used.
# Different concentrations of inhibitor 2c and substrate were used to perform kinetics. Four concentrations (0, 1.5, 3.0, 4.5 μM) of inhibitor 2c and four concentrations (0.5, 1.0, 1.5 and 2.0 mM) of substrate were used.
# T2 sequence (P07374 whole entry, looked up): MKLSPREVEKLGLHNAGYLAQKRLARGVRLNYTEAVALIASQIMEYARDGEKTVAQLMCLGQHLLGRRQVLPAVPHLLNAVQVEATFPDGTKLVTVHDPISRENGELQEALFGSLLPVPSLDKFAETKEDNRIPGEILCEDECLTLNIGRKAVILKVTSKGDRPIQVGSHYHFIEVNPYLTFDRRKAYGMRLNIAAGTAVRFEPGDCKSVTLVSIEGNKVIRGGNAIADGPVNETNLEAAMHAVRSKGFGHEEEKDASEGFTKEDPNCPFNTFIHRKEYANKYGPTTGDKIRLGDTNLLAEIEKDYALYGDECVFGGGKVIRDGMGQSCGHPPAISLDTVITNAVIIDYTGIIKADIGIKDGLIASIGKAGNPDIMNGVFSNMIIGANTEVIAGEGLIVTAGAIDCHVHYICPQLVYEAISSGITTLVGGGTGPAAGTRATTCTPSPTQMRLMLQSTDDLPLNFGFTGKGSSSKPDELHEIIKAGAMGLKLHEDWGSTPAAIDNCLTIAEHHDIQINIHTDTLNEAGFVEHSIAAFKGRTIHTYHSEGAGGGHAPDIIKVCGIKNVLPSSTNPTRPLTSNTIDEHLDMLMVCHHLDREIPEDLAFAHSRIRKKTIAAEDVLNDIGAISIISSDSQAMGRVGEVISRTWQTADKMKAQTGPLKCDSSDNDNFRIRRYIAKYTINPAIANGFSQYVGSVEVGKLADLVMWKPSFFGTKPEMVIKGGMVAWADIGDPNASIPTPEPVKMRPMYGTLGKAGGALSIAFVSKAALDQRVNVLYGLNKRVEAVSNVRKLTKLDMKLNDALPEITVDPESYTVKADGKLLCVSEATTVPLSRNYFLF
# T1 sequence (P07374 whole entry, looked up): as above
smiles,measurement,setting,value
"CCCS(=O)(=O)Oc1cccc(-c2nc3sccn3c2-c2cccc(S(C)(=O)=O)c2)c1 [Compound 2c, 3-(5-(3-(Methylsulfonyl)phenyl)imidazo[2,1-b]thiazol-6-yl)phenyl propane-1-sulfonate]",IC50,H. pylori [1],281 ± 21 µM
same,IC50,Jack bean urease,2.94 ± 0.05 µM
same,fold more potent than thiourea positive control (urease inhibition),Jack bean urease; ratio of IC50 vs thiourea,8 fold
same,melting point,,188 to 191 °C
same,MIC,H. pylori [2],800 µM
same,type of urease inhibition,urease,competitive inhibition; also recorded: competitive inhibitor
